From patent US20160287589A1, “SUBSTITUTED-IMIDAZOPYRIDAZINES” (BAYER PHARMA AKTIENGESELLSCHAFT, priority 2013, published 2016)

Assays:
[1] = molecular target: T1, MKNK1 (Homo sapiens, UniProt Q9BUB5, T385D); test: MKNK1 kinase assay (MKNK1 TR-FRET assay); type: biochemical; details: 10 μM ATP, 15 min preincubation
T1 construct: GST (N); purchased Carna Biosciences 02-145; host or cells: insect cells (baculovirus expression system)
Excerpt: MKNK1-inhibitory activity of compounds of the present invention was quantified employing the MKNK1 TR-FRET assay as described in the following paragraphs.
(§1) A recombinant fusion protein of Glutathione-S-Transferase (GST, N-terminally) and human full-lengt MKNK1 (amino acids 1-424 and T344D of accession number BAA 19885.1), expressed in insect cells using baculovirus expression system and purified via glutathione sepharose affinity chromatography, was purchased from Carna Biosciences (product no 02-145) and used as enzyme. As substrate for the kinase reaction the biotinylated peptide biotin-Ahx-IKKRKLTRRKSLKG (C-terminus in amide form) was used which can be purchased e.g. form the company Biosyntan (Berlin-Buch, Germany).
For the assay 50 nL of a 100 fold concentrated solution of the test compound in DMSO was pipetted into a black low volume 384 well microtiter plate (Greiner Bio-One, Frickenhausen, Germany), 2 μL of a solution of MKNK1 in aqueous assay buffer [50 mM HEPES pH 7.5, 5 mM magnesium chloride, 1.0 mM dithiothreitol, 0.005% (v/v) Nonidet-P40 (Sigma)] was added and the mixture was incubated for 15 min at 22° C. to allow pre-binding of the test compounds to the enzyme before the start of the kinase reaction. […] The concentration of MKNK1 was adjusted depending of the activity of the enzyme lot and was chosen appropriate to have the assay in the linear range, typical concentrations were in the range of […]. The reaction was stopped by the addition of 5 μL of a solution of TR-FRET detection reagents (5 nM streptavidine-XL665 [Cisbio Bioassays, Codolet, France] and 1 nM anti-ribosomal protein S6 (pSer236)-antibody from Invitrogen [#44921G] and 1 nM LANCE EU-W1024 labeled ProteinG [Perkin-Elmer, product no. AD0071]) in an aqueous EDTA-solution (100 mM EDTA, 0.1% (w/v) bovine serum albumin in 50 mM HEPES pH 7.5).
(§2) The resulting mixture was incubated for 1 h at 22° C. to allow the formation of complex between the phosphorylated biotinylated peptide and the detection reagents. Subsequently the amount of phosphorylated substrate was evaluated by measurement of the resonance energy transfer from the Eu-chelate to the streptavidine-XL. Therefore, the fluorescence emissions at 620 nm and 665 nm after excitation at 350 nm were measured in a TR-FRET reader, e.g. a Rubystar (BMG Labtechnologies, Offenburg, Germany) or a Viewlux (Perkin-Elmer). The ratio of the emissions at 665 nm and at […] was taken as the measure for the amount of phosphorylated substrate. The data were normalised (enzyme reaction without inhibitor=0% inhibition, all other assay components but no enzyme=100% inhibition).

[2] = molecular target: T1, MKNK1; test: MKNK1 kinase high ATP assay (TR-FRET-based); type: biochemical; details: 2 mM ATP, 15 min preincubation
Description: MKNK1 Kinase High ATP Assay
MKNK1-inhibitory activity at high ATP of compounds of the present invention after their preincubation with MKNK1 was quantified employing the TR-FRET-based MKNK1 high ATP assay as described in the following paragraphs.
as §1, with “human full-length” for “human full-lengt”, “was used,” for “was used”, “e.g. from” for “e.g. form”
For the assay 50 nL of a 100 fold concentrated solution of the test compound in DMSO was pipetted into a black low volume 384 well microtiter plate (Greiner Bio-One, Frickenhausen, Germany), 2 μL of a solution of MKNK1 in aqueous assay buffer [50 mM HEPES pH 7.5, 5 mM magnesium chloride, 1.0 mM dithiothreitol, 0.005% (v/v) Nonidet-P40 (Sigma)] was added and the mixture was incubated for 15 min at 22° C. to allow pre-binding of the test compounds to the enzyme before the start of the kinase reaction. Then the kinase reaction was started by the addition of 3 μL of a solution of adenosine-tri-phosphate (ATP, 3.3 mM=>final conc. in the 5 μL assay volume is 2 mM) and substrate (0.1 μM=>final conc. in the 5 μL assay volume is 0.06 μM) in assay buffer and the resulting mixture was incubated for a reaction time of 30 min at 22° C. The concentration of MKNK1 was adjusted depending of the activity of the enzyme lot and was chosen appropriate to have the assay in the linear range, typical concentrations were in the range of 0.003 μg/mL. The reaction was stopped by the addition of 5 μL of a solution of TR-FRET detection reagents (5 nM streptavidine-XL665 [Cisbio Bioassays, Codolet, France] and 1 nM anti-ribosomal protein S6 (pSer236)-antibody from Invitrogen [#44921G] and 1 nM LANCE EU-W1024 labeled ProteinG [Perkin-Elmer, product no. AD0071]) in an aqueous EDTA-solution (100 mM EDTA, 0.1% (w/v) bovine serum albumin in 50 mM HEPES pH 7.5).
as §2

T1 sequence (Q9BUB5 1-424 isoform Q9BUB5-2 T344D): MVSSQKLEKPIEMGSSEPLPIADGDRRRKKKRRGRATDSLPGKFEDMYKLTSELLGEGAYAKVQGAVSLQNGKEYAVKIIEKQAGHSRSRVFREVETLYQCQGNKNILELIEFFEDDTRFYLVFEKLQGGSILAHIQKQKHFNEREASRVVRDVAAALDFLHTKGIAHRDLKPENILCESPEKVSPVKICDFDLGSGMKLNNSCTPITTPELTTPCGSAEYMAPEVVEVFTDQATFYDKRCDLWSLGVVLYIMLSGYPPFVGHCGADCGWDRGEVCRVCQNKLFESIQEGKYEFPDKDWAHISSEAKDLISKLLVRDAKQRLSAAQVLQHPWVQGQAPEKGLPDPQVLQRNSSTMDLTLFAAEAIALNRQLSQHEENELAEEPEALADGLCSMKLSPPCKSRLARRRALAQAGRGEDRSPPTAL

IC50 ([1]; Table 1b) | IC50 ([1]; Table 1a) | IC50 ([2]; Table 2a) | Compound | also measured
2.4 nM |  |  | COC[C@H]1CCCN1c1cccc2oc(-c3cnc4ccc(OCCCS(C)(=O)=NC#N)nn34)cc12 (mixture of isomers) [II-25, [{3-[(3-{4-[2-(Methoxymethyl)pyrrolidin-1-yl]-1-benzofuran-2-yl}imidazo-[1,2-b]pyridazin-6-yl)oxy]propyl}(methyl)oxido-λ^6-sulfanylidene]cyanamide] | IC50 ([2]; Table 2b): 2.7 nM
5.1 nM |  |  | C[C@@H]1CNCCN1c1cccc2oc(-c3cnc4ccc(OC[C@@H]5CCC(=O)N5)nn34)cc12 [II-62, (5S)-5-{[(3-{4-[(2R)-2-methylpiperazin-1-yl]-1-benzofuran-2-yl}imidazo[1,2-b]pyridazin-6-yl)oxy]methyl}pyrrolidin-2-one] | 
9.3 nM |  |  | C[C@@H]1CNCCN1c1cccc2oc(-c3cnc4ccc(OCC(F)(F)F)nn34)cc12 [II-64, 3-{4-[(2R)-2-methylpiperazin-1-yl]-1-benzofuran-2-yl}-6-(2,2,2-trifluoroethoxy)im-idazo[1,2-b]pyridazine] | 
27.3 nM |  |  | CC1(C)CN(c2cccc3oc(-c4cnc5ccc(O[C@H]6C[C@H](N)C6)nn45)cc23)CCO1 [II-66, trans-3-({3-[4-(2,2-dimethylmorpholin-4-yl)-1-benzofuran-2-yl]imidazo[1,2-b]pyridazin-6-yl}oxy)cyclobutanamine] | 

Further lines, the compound ahead of its results:

Compound | IC50 ([1]; Table 1b) | IC50 ([1]; Table 1a) | IC50 ([2]; Table 2a) | also measured
c1cc2oc(-c3cnc4ccc(OC[C@H]5CCCCN5)nn34)cc2c(N2CCOCC2)n1 (stereo in doubt) [III-140, 3-[4-(morpholin-4-yl)furo[3,2-c]pyridin-2-yl]-6-(piperidin-2-ylmeth-oxy)imidazo[1,2-b]pyridazine] |  |  |  | IC50 ([1]; Table 1c): 80 nM; IC50 ([2]; Table 2c): 183 nM
O=C(C1CC1)N1CCC[C@H]1CCOc1ccc2ncc(-c3cc4ccccc4o3)n2n1 [Example I-1, [(2S)-2-(2-{[3-(1-Benzofuran-2-yl)imidazo[1,2-b]pyridazin-6-yl]oxy}ethyl)-pyrrolidin-1-yl](cyclopropyl)methanone] |  | 1 nM | 2.3 nM | 
CC(=O)N1CCC[C@H]1CCOc1ccc2ncc(-c3cc4ccccc4o3)n2n1 [Example I-2, 1-[(2S)-2-(2-{[3-(1-Benzofuran-2-yl)imidazo[1,2-b]pyridazin-6-yl]oxy}ethyl)-pyrrolidin-1-yl]ethanone] |  | 1.8 nM | 3.1 nM | 
O=C1NC(COc2ccc3ncc(-c4cc5ccccc5o4)n3n2)CO1 (centres unmarked) [Example I-4, 4-({[3-(1-Benzofuran-2-yl)imidazo[1,2-b]pyridazin-6-yl]oxy}methyl)-1,3-oxazolidin-2-one] |  | 5.6 nM | 8.8 nM | 
O=C(N[C@H]1C[C@H](Oc2ccc3ncc(-c4cc5ccccc5o4)n3n2)C1)C1CC1 [Example I-5, N-(trans-3-{[3-(1-Benzofuran-2-yl)imidazo[1,2-b]pyridazin-6-yl]oxy}cyclobutyl)-cyclopropanecarboxamide] |  | 5.3 nM | 8.9 nM | 
CC(C)(C)CC(=O)N1CCC[C@H]1CCOc1ccc2ncc(-c3cc4ccccc4o3)n2n1 [Example I-6, 1-[(2S)-2-(2-{[3-(1-Benzofuran-2-yl)imidazo[1,2-b]pyridazin-6-yl]oxy}ethyl)-pyrrolidin-1-yl]-3,3-dimethylbutan-1-one] |  | 3.4 nM | 9.2 nM | 
O=C1CC[C@@H](COc2ccc3ncc(-c4cc5ccccc5o4)n3n2)N1 [Example I-7, (5S)-5-({[3-(1-Benzofuran-2-yl)imidazo[1,2-b]pyridazin-6-yl]oxy}methyl)-pyrrolidin-2-one] |  | 3.1 nM | 9.2 nM | 
O=C1CCCC(COc2ccc3ncc(-c4cc5ccccc5o4)n3n2)N1 (centres unmarked) [Example I-8, 6-({[3-(1-Benzofuran-2-yl)imidazo[1,2-b]pyridazin-6-yl]oxy}methyl)piperidin-2-one] |  | 5.2 nM | 9.3 nM | 
O=C1CC[C@H](COc2ccc3ncc(-c4cc5ccccc5o4)n3n2)N1 [Example I-9, (5R)-5-({[3-(1-Benzofuran-2-yl)imidazo[1,2-b]pyridazin-6-yl]oxy}methyl)-pyrrolidin-2-one] |  | 3.3 nM | 9.6 nM | 
